“Also recorded” adds a separate entry of the source. Read-outs that look alike come from different tables or passages of the source. Peptide text beside a SMILES is read from it. * marks the point of attachment. Cbz = O=C(OCc1ccccc1)*
Tests used:
[1] = test system: WT and UBE3A KO human induced neurons; experiment: Whole cell patch clamp recordings of human induced neurons (fAHP amplitude, AP firing frequency); format: cell-based
[2] = test system: healthy human volunteers; conditions: i.v. infused for 1 hour; cited from earlier work
[3] = test system: neurons of WT and UBE3A KO cortical organoids; experiment: Whole cell and perforated patch clamp recordings of neurons in human cortical organoids; format: cell-based; conditions: for changes in neuronal excitability, fAHP, and network hyperactivity and synchronization in human cortical organoids from UBE3A knockout stem cells: summary statement
Procedure: Cortical organoids were generated based on a published protocol (Pasca et al., Nat Methods 12, 671-678 (2015)) with minor modifications. hPSCs were dissociated to single cells by TrypLE Express (Thermofisher) and seeded into U-shaped ultra-low attachment 96-well plate (Corning) at a density of 6K cells/well in the presence of thiazovivin (5 μM, Tocris). After spheroid formation, media were completely changed to Neural Induction Media (NIM: DMEM/F12 (Nacalai Tesque), 20% KnockOut Serum Replacement (Thermofisher), 1% minimum essential media-nonessential amino acid (Thermofisher), 1% GlutaMax (Thermofisher), 1% Antibiotic-Antimycotic (Thermofisher), 0.1% β-mercaptoethanol (Thermofisher), 5 μM Dorsomorphin (Tocris), 10 μM SB431542 (Stemgent)) for the next 6 days, with media change every other day. Starting day 7, media were changed to Neural Growth Media (NGM: Neurobasal (Thermofisher), 1:50 B27 without vitamin A (Thermofisher), 1% GlutaMAX (Thermofisher), 1% Antibiotic-Antimycotic (Thermofisher), 20 ng/ml EGF (PeproTech), 20 ng/ml FGF-basic (PeproTech)) for the next 18 days, with media change every other day. Starting day 25, organoids were transferred out of 96-well plates to 6-well plates (6-8 organoids per well), cultured in Organoid Media I (OMI: Neurobasal (Thermofisher), 1:50 B27 without vitamin A (Thermofisher), 1% GlutaMax (Thermofisher), 1% Antibiotic-Antimycotic (Thermofisher), 10 mM HEPES (Thermofisher), 10 ng/ml BDNF (PeproTech), 10 ng/ml NT3 (PeproTech)) until day 100 on an orbital shaker (75 rev/min). After day 100, media were changed to Organoid Media II (OMII: BrainPhys (Stemcell Technologies), 1:50 SM1 (Stemcell Technologies), 1% GlutaMax (Thermofisher), 1% Antibiotic-Antimycotic (Thermofisher), 10 mM HEPES (Thermofisher), 10 ng/ml BDNF (PeproTech), 10 ng/ml GDNF (PeproTech), 10 ng/ml NT3 (PeproTech), 100 μM db-cAMP (Sigma)).
(§1) Whole cell patch clamp recordings of neurons in the organoid (wholemount) and acute mouse hippocampal slices were performed in a recording chamber (RC-26GLP, Warner Instruments) and submerged under continuously perfused artificial CSF (aCSF) containing (in mM): 119 NaCl, 2.5 KCl, 11 glucose, 26 NaHCO3, 1.25 NaH2PO4, 2.5 CaCl2 and 2 MgCl2 saturated with 95% O2 and 5% CO2 at 30-32° C. Neuronal intrinsic excitability was measured in the presence of CNQX (20 μM, Tocris) and APV (50 μM, Tocris) to block all excitatory synaptic responses. We targeted neurons near the surface of organoids with reasonably pyramidal-shaped cell bodies under our DIC/IR camera. […] Signals were recorded using a MultiClamp 700B amplifier, filtered at 2 kHz using a Bessel filter, and digitized at 40 kHz with a Digidata 1550B analog-to-digital (A/D) board (Molecular Devices, Sunnyvale, Calif.). […]

[4] = test system: BK protein level in HEK293 cells; experiment: BK protein level in HEK293 cells overexpressing UBE3A (immunoblotting); format: cell-based, human; conditions: proteasome inhibitor 1 μM
Procedure: Induced neurons or cortical organoids were lysed in RIPA buffer supplemented with protease and phosphatase inhibitor cocktails. Protein samples were loaded onto 8-12% Bis-TRIS (NP0322BOX Invitrogen) and were transferred onto a PVDF membrane. After blocking with 5% milk in TBS-T buffer for 1 hour, PVDF membranes were incubated with primary antibodies overnight at 4° C., followed by 1-hour incubation with mouse or rabbit HRP antibody (1:2000, Invitrogen) at RT. Images were visualized by either chemiluminescence or NIR fluorescent detection using c600 Imaging System (Azure Biosystems Inc). HEK293 cells were grown in DMEM (Sigma) containing 10% FBS (Gibco) and 100 U/mL penicillin-streptomycin (Gibco) in a 5% CO2 incubator. Cells were transfected with a Lipofectamine PLUS (Invitrogen), subsequently were treated with 1 μM of MG132 (A.G Scientific) for another 24 h. Next, cells were lysed in PBS containing 1% SDS (Invitrogen), 1 mM PMSF (USB), 10 μg/ml aprotinin (Roche), and 1% (v/v) phosphatase inhibitor cocktail 2 and 3 (Sigma).

[5] = test system: WT and Ube3a m-/p+ mice; experiment: Flurothyl-induced seizures; format: in vivo, mouse; conditions: paxilline pre-treatment 0.35 mg/kg i.p.; flurothyl 100 μl/min
Description: Chamber was cleaned and the tissue paper was replaced before each new trial.

[6] = test system: WT and Ube3a m-/p+ mice; format: in vivo, mouse; conditions: for seizure grade based on Racine's scale: no paxilline
Procedure: […]. Seizure severity of mice was dependent on multiple variables such as picrotoxin dose, mice age, and their body weights. […] Videos were recorded for all the behavioural experiments. Behavioral analysis was performed in a double-blind manner with littermates (siblings of wild-type (Ube3a^m+/p+) and maternal knockout (Ube3a^m−/p+) mice that produced from same pairs of Ube3a^m+/p− females and Ube3a^m+/p+ males).

[7] = test system: hippocampal neurons of WT and Ube3a m-/p+ mice; experiment: Whole cell patch clamp recordings in acute mouse hippocampal slices; format: cell-based; conditions: paxilline, postnatal day 28
Procedure: as §1
For fAHP analysis in all recordings, automatic detection and calculation was conducted by customized matlab scripts adapted from published algorithm (Bean, Nat Rev Neurosci 8, 451-465 (2007); Platkiewicz and Brette, PLoS Comput Biol 6, e1000850 (2010); Yu et al., J Neurosci 28, 7260-7272 (2008)). […] The fAHP amplitude of each neuron was calculated by averaging the fAHP of the first spike in all current injection steps. […]

[8] = test system: WT and KO mice
[9] = test system: WT and UBE3A KO cortical organoids; experiment: Two-photon calcium imaging of cortical organoids; format: cell-based, human; conditions: paxilline 10 μM
[10] = test system: WT and Ube3a m-/p+ mice; experiment: In vivo local field potential (LFP) recording in freely moving mice; design: species or system mouse; conditions: paxilline 0.35 mg/kg, 4 times with 1-hour interval
Procedure: […]. Eye cream was applied to a mouse to protect the eye from drying due to anaesthesia. 2% lidocaine was injected under the scalp and subsequently scalp was removed to expose the skull. […] Stereotrodes were made with platinum-iridium wire (90%:10%, A-M system) and unilaterally implanted into BIC. Stainless steel screw (AP: 2 mm, Lateral: 2 mm) was used as a reference electrode. Iodopavidone was applied for disinfection around the surgical area after dental cement mounting. Mice were maintained on a heating pad at 37° C. until waking from the anaesthesia before putting back to home cages. LFP recordings were performed on the mice 5 days after surgery. LFP recordings were conducted in a copper-Faraday chamber. For evoked LFP, auditory stimulus (˜125 dB, 500 Hz) was provided by a speaker (EKX, Electro-Voice) driven by a customized program in Matlab. LFP was recorded with sampling rate at 500 Hz and filtered with 0.5 Hz high-pass and 100 Hz low-pass by EEG/EMG recording system (Pinnacle). […] Video was recorded simultaneously for further analysis. After all recordings, mice were sacrificed, and their brains were isolated and fixed using 4% PFA in PBS and the implanted electrode locations were confirmed by either bright field imaging or DAPI staining and subsequent fluorescence imaging.

## CCCNc1nc(NCCC)nc(N(C)OC)n1 [GAL-021, 2-N-methoxy-2-N-methyl-4-N,6-N-dipropyl-1,3,5-triazine-2,4,6-triamine]
[1]; GAL-021 50 μM or 100 μM, KO neurons
  fAHP amplitude in KO hINs: lowered
[1]; GAL-021 50 μM or 100 μM, WT neurons
  fAHP amplitude (and AP firing frequencies) in WT hINs: did not change; also recorded: did not affect
[1]; GAL-021 100 μM
  spike frequency and fAHP in KO neurons compared with WT hINs: Restoration
[1]; GAL-021 200 μM, KO neurons
  fAHP amplitude in KO hINs: not significantly different from that of 100 μM
[1]; GAL-021 200 μM, KO neurons, listed as GAL021
  fAHP amplitude in KO hINs: normalized fAHP
[1]; GAL-021 200 μM, WT neurons
  fAHP amplitude in WT hINs: lowered
[1]; GAL-021 200 μM, WT neurons, listed as GAL021
  fAHP amplitude in WT hINs: decreased fAHP
[1]; GAL-021 50 or 100 μM
  differences in fAHP amplitude and AP firing frequency between KO and WT neurons: normalized
[1]; GAL-021 application (50, 100, 200 μM tested)
  intrinsic excitability associated with augmented fAHP in UBE3A-deficient human neurons: returns to normal
[2]
  tolerated i.v. infusion dosage: 0.1 to 0.96 mg/kg/h
[3]
  changes in neuronal excitability, fAHP, and network hyperactivity and synchronization in human cortical organoids from UBE3A knockout stem cells: normalized

## CC(C)C[C@@H](C=O)NC(=O)[C@H](CC(C)C)NC(=O)[C@H](CC(C)C)NC(=O)OCc1ccccc1 [MG312] (Cbz-Leu-Leu-Leu-aldehyde)
[4]
  decrease in the BK protein level caused by UBE3A coexpression: abolished

## CC(C)(O)[C@H]1O[C@H]2CC[C@@]3(C)[C@@](O)(CC[C@H]4Cc5c([nH]c6ccccc56)[C@@]43C)C2=CC1=O [Paxilline, (2R,4bS,6aS,12bS,12cR,14aS)-4b-hydroxy-2-(1-hydroxy-1-methylethyl)-12b,12c-dimethyl-5,6,6a,7,12,12b,12c,13,14,14a-decahydro-2H-chromeno[5′,6′:6,7]indeno[1,2-b]indol-3(4bH)-one]
[5]
  reduction in the latency to myoclonic seizure in Ube3a m-/p+ mice: normalized
[6]; paxilline high dose 3 mg/kg, KO mice
  seizure susceptibility in KO mice: responded positively
[6]; paxilline high dose 3 mg/kg, WT mice
  seizure susceptibility in WT mice: increased seizure susceptibility
[6]; paxilline pre-treatment 0.35 mg/kg i.p., picrotoxin 3 mg/kg i.p.
  seizure grade of Ube3a m-/p+ mice versus WT mice: normalize
[1]; 5 μM paxilline
  differences in fAHP amplitude and AP firing frequency between KO and WT neurons: normalized
[1]; 5 μM paxilline, KO neurons
  excitability and fAHP in KO neurons: successfully restored excitability and fAHP to WT levels
[1]; 20 μM paxilline, WT neurons
  fAHP in WT neurons: significantly lowered fAHP
[1]; paxilline 5 μM, WT neurons
  fAHP in WT neurons: did not significantly reduce the fAHP
[7]
  changes in excitability and higher fAHP in neurons from Ube3a m-/p+ mice: normalized
[8]; 10 mg/kg paxilline, WT and KO mice
  seizures caused by paxilline: caused seizures
[8]; paxilline 3 mg/kg compared to 0.35 mg/kg, WT mice
  tremor in WT mice: induced tremor
[8]; paxilline 3 mg/kg, KO mice
  tremor in KO mice: not evident
[3]; paxilline 10 μM, KO organoids
  augmented neuronal excitability and fAHP changes in neurons of KO organoids: normalized
[3]; paxilline 10 μM, perforated patch recordings, KO organoids
  spontaneous burst firing in neurons of UBE3A KO organoids: completely converted spontaneous burst firing into single AP firing
[3]
  changes in neuronal excitability, fAHP, and network hyperactivity and synchronization in human cortical organoids from UBE3A knockout stem cells: normalized
[9]
  frequencies and amplitudes of calcium transients in the organoids: decreased both the frequencies and the amplitudes
  higher levels of network synchronization in KO and AS iPSC-derived organoids: abolished
[10]
  enhancement in the delta band (1-4 Hz) of LFP in Ube3a m-/p+ mice: normalized

## picrotoxin
[6]; picrotoxin 3 mg/kg i.p., Ube3a m-/p+ mice
  seizure grade based on Racine's scale: 5 grade
[6]; picrotoxin 3 mg/kg i.p., WT mice
  seizure grade based on Racine's scale: 1-2 grade
